This is an account of results in patent US9661855B2, “Cyclic aza-sila compounds as insect repellants” (COUNCIL OF SCIENTIFIC & INDUSTRIAL RESEARCH, priority 2012, dated 2017).

The structures appear in SMILES notation. Like-named read-outs stand apart in the source and are kept apart here.

In series [1] the test system is Aedesaegypti (L.). The settings on record: against Aedesaegypti (L.); topical, human volunteers; cited from earlier work.
The subject of series [2] is Anopheles stephensi Liston. Particulars: against Anopheles stephensi Liston; topical, human volunteers; cited from earlier work.
The subject of series [3] is insect bites. Particulars: cited from earlier work.
The subject of series [4] is Ae. aegypti females mosquitoes. As to the kind of experiment: Mosquito repellence test, protection period (time until the first bite), treated muslin screen over human volunteer's hand. Type of series: in vivo. The settings on record: 27±1° C.; for Protection period in hrs @ 0.25 mg/cm^2: 0.25 mg/cm^2 on muslin cloth screen; for Protection period in hrs @ 0.50 mg/cm^2: 0.50 mg/cm^2 on muslin cloth screen. The procedure:
Mosquito repellence activity was assessed on the basis of protection period (hr) offered by various analogues of DEET against Mosquito bites. The protection period was measured on the basis of the concept” time until the first bite” pioneered by Granette (Comparison of mosquito repellence test under laboratory and field conditions. Granett, P. Proc Ann Meet NJ Mosq Assoc, 1938, vol. 25, 51). Repellence tests were carried out against 3-5 days old, blood starved but sucrose fed (0.5M solution), Ae. aegypti females mosquitoes, drawn from well-established laboratory colony maintained at 27±1° C. Temperature and 70±5% Relative humidity. The light intensity was regulated at 300-500 lux for testing against laboratory, colonized Ae. aegypti, a day biting mosquito. Human volunteer's hand covered with polythene disposable gloves was introduced in the cage containing about 200 hungry mosquitoes. Mosquitoes were allowed to bite on the back of the hand through muslin screen stuck over a small window (2 cm×2 cm) cut out in the polythene bag. Various analogues of DEET were loaded on the muslin cloth screen instead of direct skin application so as to avoid the potential risk involved in the evaluation of natural products of unknown mammalian toxicity. All the test solutions were made in Analar grade Acetone The muslin cloth screen was first treated with the analogue taking two doses @0.25 mg/cm2 and 0.5 mg/cm2 and the solvent was evaporated before use. Control muslin screen was treated with solvent alone. After introduction of the hand covered with the polythene glove with the treated muslin screen into the mosquito cage, number of mosquito bites received in subsequent 5 minutes was counted. In the event of no bites in the initial 5 minutes exposure, the test hand was exposed repeatedly after every consecutive ½ hr for 5 minutes test till the time a confirmed bite was received. Number of hours before the receipt of a confirmed bite (Techniques for the evaluation of insect repellents. A critical review (Schreck, C. E, Ann Rev Entomol, 1977, vol 22, 101) represented the protection period offered by the test compound. In control rate of mosquito bite was 10-12 bites/min. All the tests were carried out at 27±1° C. temperature between 9.00-17.00 hrs.

With `CCN(CC)C(=O)Cc1cccc(C(F)(F)F)c1` [N,N-diethyl[(alpha,alpha,alpha-trifluoro-m-tolyl)]acetamide], the “biting-deterrent activities compared with DEET” value in series [1] and in series [2] was “superior to DEET” in each case. Turning to `CCN(CC)C(=O)c1cccc(C)c1` [DEET, N,N-Diethyl-meta-toluamide], the values for the hours of protection result in series [3] (100% DEET) and in series [3] (lower concentrations of 20%-40% DEET) were “up to 12 hours” and 3 to 8 h, respectively.

In the case of `CCCCCCCCCCC(=O)N1CC[Si](C)(C)CC1`, in series [4], the “Protection period in hrs @ 0.25 mg/cm^2” value is 2.14 ± 0.065 h and the “Protection period in hrs @ 0.50 mg/cm^2” value came out at 5.05 ± 0.207 h.

Turning to `CCN(CC)C(=O)Cc1cccc(Br)c1` [N,N-diethyl(3-bromophenyl) acetamide], the “biting-deterrent activities compared with DEET” value in series [1] and in series [2] was “superior to DEET” in each case. With `CCN(CC)C(=O)c1cccc(C(F)(F)F)c1` [N,N,diethyl[3-(trifluoromethyl)]benzamide], the “biting-deterrent activities compared with DEET” value in series [1] and in series [2] was “superior to DEET” in each case. In the case of `C[Si]1(C)CCN(C(=O)c2cnccn2)CC1`, in series [4], the “Protection period in hrs @ 0.25 mg/cm^2” value turned out to be 2.14 ± 0.76 h and the “Protection period in hrs @ 0.50 mg/cm^2” value was 4.22 ± 0.69 h.

Take `Cc1ccccc1C(=O)N1CC[Si](C)(C)CC1`: in series [4], the “Protection period in hrs @ 0.25 mg/cm^2” value came out at 4.09 ± 0.053 h and the “Protection period in hrs @ 0.50 mg/cm^2” value came to 5.41 ± 0.135 h. As usually defined, the melting point is the temperature of the solid-liquid transition. `Cc1cccc(C(=O)N2CC[Si](C)(C)CC2)c1` returned a melting point of 65 to 68 °C. `C[Si]1(C)CCN(C(=O)c2ccccc2)CC1` returned a melting point of 65 to 67 °C. For `Cc1ccc(C(=O)N2CC[Si](C)(C)CC2)cc1`, in series [4], the “Protection period in hrs @ 0.25 mg/cm^2” value is 3.08 ± 0.056 h and the “Protection period in hrs @ 0.50 mg/cm^2” value came out at 4.16 ± 0.067 h. For `Cc1cccc(C(=O)N2CC[Si](C)(C)CC2)c1` [drawing 33], in that order: 1.47 ± 0.13 h and 2.15 ± 0.072 h. For `C[Si]1(C)CCN(C(=O)c2cc(Cl)ccc2Cl)CC1`, the melting point fell in the range of 79 to 81 °C. The same measure, in the same setting: then `C[Si]1(C)CCN(C(=O)c2ccccn2)CC1`, with 101 to 103 °C.
